Experimental data as given in patent US11787849B2, “Methods and compounds for eliminating immune responses to therapeutic agents” (IMCYSE SA, priority 2015, dated 2023).

What was measured:
[1] = tested on: CD4+ T cells; conditions: peptide adsorbed on aluminum hydroxide, SC injection; known from WO200817517; cited from earlier work
[2] = tested on: CD4+ T cells; assay: Vaccination with peptide (redox motif + epitope) adsorbed on aluminum hydroxide, SC: induction of cytolytic CD4+ T cells; format: in vivo, human
From the text: A vaccination strategy making use of a mixture of two peptides encompassing the minimal binding sequence of class II-restricted epitopes and a thioreductase motif is therefore established.
Administration of a mixture of these two peptides adsorbed on aluminum hydroxide elicits specific CD4+ T cells with cytolytic properties.
Patients in need for EPO injection are vaccinated by administration of peptide [SEQ ID NO:18] using a standard procedure of peptide adsorbed on aluminum hydroxide and administered by SC injection.
Patients affected by Fabry disease are immunized with peptide of SEQ ID NO:21, using a standard procedure of peptide adsorbed on aluminium hydroxide and administered by SC injection.
The mammalian expression vector pCMV with cytomegalovirus promotor is engineered to allow the expression in CHO (Chinese hamster ovary) cells of any protein for replacement therapy, in fusion with the promiscuous CLIP-derived epitope described in example 2 [SEQ ID NO:17]. Patients in need for injection with a protein for replacement therapy are first vaccinated by administration of a peptide comprising a thioreductase motif and the modified CLIP-derived epitope described in example 2 [SEQ ID NO:18].

[3] = tested on: cytolytic CD4+ T cells; assay: Administration of epitope-tagged therapeutic protein to a previously vaccinated / cell-treated individual: activation of cytolytic CD4+ T cells and immune response to the protein; format: in vivo, human; conditions: individual pretreated with the matching redox-motif peptide or with autologous cells activated by it
From the text: Recombinant alpha-galactosidase can be modified as to contain the sequence of a class II-restricted promiscuous T cell epitope added at the amino-terminal end of the molecule.
The promiscuous nature of the CLIP-modified epitope makes it possible to use the same vaccine and the same EPO molecule for any patient in need of such therapy, regardless of its HLA profile.

CPYC-VR-FFMATRLLMQAL (CPYCVRFFMATRLLMQAL; CxxC redox motif + modified clip peptide) [SEQ ID NO:18]
elicitation of epitope-specific cytolytic CD4+ T cells [1]: elicit epitope-specific cytolytic CD4+ T cells

CPYC-LF-LKSDGRVKYTLN (CPYCLFLKSDGRVKYTLN; CxxC + redox motif apolipoprotein B-100 epitope) [SEQ ID NO:21]
elicitation of specific CD4+ T cells with cytolytic properties [2]: Epitope-specific cytolytic CD4+ T cells are then produced

B1: modified alpha-galactosidase: recombinant alpha-galactosidase modified to contain the LFLKSDGRVKYTLN promiscuous epitope (protein)
chain: LFLKSDGRVKYTLNDNGLARTPTMGWLHWERFMCNLDCQEEPDSCISEKLFMEMAELMVSEGWKDAGYEYLCIDDCWMAPQRDSEGRLQADPQRFPHGIRQLANYVHSKGLKLGIYADVGNKTCAGFPGSFGYYDIDAQTFADWGVDLLKFDGCYCDSLENLADGYKHMSLALNRTGRSIVYSCEWPLYMWPFQKPNYTEIRQYCNHWRNFADIDDSWKSIKSILDWTSFNQERIVDVAGPGGWNDPDMLVIGNFGLSWNQQVTQMALWAIMAAPLFMSNDLRHISPQAKALLQDKDVIAINQDPLGKQGYQLRQGDNFEVWERPLSGLAWAVAMINRQEIGGPRSYTIAVASLGKGVACNPACFITQLLPVKRKLGFYEWTSRLRSHINPTGTVLLQLENTMQMSLKDLL
modifications: apolipoprotein B-100 epitope + alpha galactosidase
immune response towards the therapeutic protein [3]: does not elicit an immune response to alpha-galactosidase
